Reference: paper PMC7955127, “Preclinical small molecule WEHI-7326 overcomes drug resistance and elicits response in patient-derived xenograft models of human treatment-refractory tumors” (Cell Death & Disease, 2021)

Assay: Acute toxicity study, single intravenous dose (non-GLP)
Format: in vivo, Sprague-Dawley rats
Details: for PT / Phosphate / Potassium / Protein (Total) / RBC / Retc. / Sodium / Triglycerides / Urea / WBC / Multifocal red petechiae on all lung lobes (incidence at necropsy) / Smaller right teste (incidence at necropsy) / Testes noted to have a soft consistency (incidence at necropsy) / White streaks though one or both testes (incidence at necropsy) / ALP / ALT / APTT / AST / Albumin / Albumin/Globulin / Bilirubin (Total) / Calcium / Chloride / Cholesterol / Creatinine / Globulin / Glucose / HCT / HGB / MCH / MCHC / MCV / PLT: day 15; for PT / Phosphate / Potassium / Protein (Total) / RBC / Retc. / Sodium / Triglycerides / Urea / WBC / ALP / ALT / APTT / AST / Albumin / Albumin/Globulin / Bilirubin (Total) / Calcium / Chloride / Cholesterol / Creatinine / Globulin / Glucose / HCT / HGB / MCH / MCHC / MCV / PLT: mean ± SD
Description: This acute toxicity study included a satellite group for toxicokinetic assessment. The toxicity study was comprised of 12 male and 12 female rats, which were allocated into four groups of three males and three females. The toxicity of the test substance, WEHI-7326 dihydrochloride (referred to as WEHI-7326 from here), was tested at three dose concentrations of 5 mg/kg, 15 mg/kg and 30 mg/kg administered as a single dose via intravenous tail vein injection. The vehicle control, D-(+)-Glucose, was formulated at 5% w/v and administered per the above regime. On Study Day 15, all animals were terminated with blood collected for biochemistry, haematology and coagulation analysis before undergoing gross necropsy by a US board certified veterinary pathologist. The toxicokinetic satellite group comprised of 30 male rats which were allocated into four groups of three males in the vehicle control group and nine males in each of the three treatment groups. All treatment group animals were then allocated into three subgroups (A, B and C) and bled pre-dose, then 2min, 10min, 0.5h, 2h, 6h, 12h and 24h post-dose. All vehicle control group animals weren’t allocated to a specific subgroup but were bled at 10min and 12h post-dose. All TK animals were then terminated after the final blood collection. Dosing was suspended on Study Day 1 for both the Toxicity and Toxicokinetic Study animals following adverse reactions which lead to the early termination of two animals (one male treated with mid-dose WEHI-7326 from the Toxicity Study and one male treated with high-dose WEHI-7326 from the Toxicokinetic Study) approximately 5-10 minutes post-treatment. After consultation with the Sponsor, the following changes were made to the Study Design:
At the revised high dose of 20mg/kg, all male rats had to be terminated prematurely also due to reaching their body weight loss endpoint of >10% loss. […] Significant findings in clinical pathology outcomes were considered incidental and unrelated to test article treatment. The majority of macroscopic findings at necropsy were also considered to be incidental, however the findings of white streaks through the testes of male animals treated with WEHI-7326 may be related to treatment. Body weights were measured once prior to dose administration, then daily for the duration of the study and at termination. Clinical observations were performed on a daily basis.
The study followed test guideline OECD No. 420 (2001) “Acute Oral Toxicity - Fixed Dose Procedure” with the exception that the route of administration was intravenous (i.v.).

[1] = female rats, 20 mg/kg single i.v.
[2] = male rats, 15 mg/kg single i.v.
[3] = male rats, 20 mg/kg single i.v.

COc1ccc(CNc2nc(NCc3ccc(CN)cc3)nc(NN3CC(=O)NC3=O)n2)cc1 [WEHI-7326]
PT [1]: 21.8 ± 0.8 s
Phosphate [1]: 1.85 ± 0.15 mM
Potassium [1]: 4.72 ± 0.20 mM
Protein (Total) [1]: 64.3 ± 1.2 g/L
RBC [1]: 7.27 ± 0.15 10^12/L
Retc. [1]: 4.75 ± 1.82%
Sodium [1]: 139 ± 1 mM
Triglycerides [1]: 0.96 ± 0.50 mM
Urea [1]: 6.37 ± 0.39 mM
WBC [1]: 7.85 ± 1.07 10^9/L
Body weight loss >10% (termination required) (incidence) (male rats, 5 mg/kg single i.v.): 0/3
Discharge from nose on study day 2 (incidence) (male rats, 5 mg/kg single i.v.): 0/3
Hunched posture with half shut eyes on Study Day 3 (incidence) (male rats, 5 mg/kg single i.v.): 0/3
Labored breathing, severely affected gait and lack of response to stimuli post-dose (termination required) (incidence) (male rats, 5 mg/kg single i.v.): 0/3
Mild impairment of gait and lack of response to stimuli postdose, resolved 2 hours post treatment (incidence) (male rats, 5 mg/kg single i.v.): 0/3
No remarkable observations (incidence) (male rats, 5 mg/kg single i.v.): 3/3
Red stained right eye on study day 2 and 3 (incidence) (male rats, 5 mg/kg single i.v.): 0/3
Multifocal red petechiae on all lung lobes (incidence at necropsy) (male rats, 5 mg/kg single i.v.): 0/3
Smaller right teste (incidence at necropsy) (male rats, 5 mg/kg single i.v.): 1/3
Testes noted to have a soft consistency (incidence at necropsy) (male rats, 5 mg/kg single i.v.): 0/3
White streaks though one or both testes (incidence at necropsy) (male rats, 5 mg/kg single i.v.): 3/3
ALP (male rats, 5 mg/kg single i.v.): 528 ± 112 U/L
ALT (male rats, 5 mg/kg single i.v.): 66 ± 17 U/L
APTT (male rats, 5 mg/kg single i.v.): 16.8 ± 1.3 s
AST (male rats, 5 mg/kg single i.v.): 114 ± 16 U/L
Albumin (male rats, 5 mg/kg single i.v.): 36.6 ± 4.1 g/L
Albumin/Globulin (male rats, 5 mg/kg single i.v.): 1.4 ± 0.2 Ratio
Bilirubin (Total) (male rats, 5 mg/kg single i.v.): 0.4 ± 0.1 µM
Calcium (male rats, 5 mg/kg single i.v.): 2.67 ± 0.12 mM
Chloride (male rats, 5 mg/kg single i.v.): 102.9 ± 5.3 mM
Cholesterol (male rats, 5 mg/kg single i.v.): 1.81 ± 0.18 mM
Creatinine (male rats, 5 mg/kg single i.v.): 25 ± 5 µM
Globulin (male rats, 5 mg/kg single i.v.): 25.3 ± 1.6 g/L
Glucose (male rats, 5 mg/kg single i.v.): 7.70 ± 0.82 mM
HCT (male rats, 5 mg/kg single i.v.): 0.52 ± 0.01 L/L
HGB (male rats, 5 mg/kg single i.v.): 151.7 ± 3.1 g/L
MCH (male rats, 5 mg/kg single i.v.): 19.70 ± 0.85 pg
MCHC (male rats, 5 mg/kg single i.v.): 294.0 ± 5.0 g/L
MCV (male rats, 5 mg/kg single i.v.): 67.2 ± 3.5 fL
PLT (male rats, 5 mg/kg single i.v.): 1025.0 ± 167.5 10^9/L
PT (male rats, 5 mg/kg single i.v.): 19.5 ± 0.3 s
Phosphate (male rats, 5 mg/kg single i.v.): 2.07 ± 0.24 mM
Potassium (male rats, 5 mg/kg single i.v.): 5.23 ± 0.33 mM
Protein (Total) (male rats, 5 mg/kg single i.v.): 61.9 ± 5.8 g/L
RBC (male rats, 5 mg/kg single i.v.): 7.71 ± 0.45 10^12/L
Retc. (male rats, 5 mg/kg single i.v.): 4.57 ± 1.00%
Sodium (male rats, 5 mg/kg single i.v.): 143 ± 10 mM
Triglycerides (male rats, 5 mg/kg single i.v.): 1.65 ± 0.18 mM
Urea (male rats, 5 mg/kg single i.v.): 6.11 ± 0.96 mM
WBC (male rats, 5 mg/kg single i.v.): 14.83 ± 1.08 10^9/L
Body weight loss >10% (termination required) (incidence) [2]: 2/4
Discharge from nose on study day 2 (incidence) [2]: 0/4
Hunched posture with half shut eyes on Study Day 3 (incidence) [2]: 0/4
Labored breathing, severely affected gait and lack of response to stimuli post-dose (termination required) (incidence) [2]: 1/4
Mild impairment of gait and lack of response to stimuli postdose, resolved 2 hours post treatment (incidence) [2]: 0/4
No remarkable observations (incidence) [2]: 1/4
Red stained right eye on study day 2 and 3 (incidence) [2]: 1/4
Multifocal red petechiae on all lung lobes (incidence at necropsy) [2]: 0/1
Smaller right teste (incidence at necropsy) [2]: 0/1
Testes noted to have a soft consistency (incidence at necropsy) [2]: 1/1
White streaks though one or both testes (incidence at necropsy) [2]: 1/1
ALP [2]: 306 ± 0 U/L
ALT [2]: 61 ± 0 U/L
APTT [2]: 20.2 ± 0.0 s
AST [2]: 108 ± 0 U/L
Albumin [2]: 32.3 ± 0 g/L
Albumin/Globulin [2]: 1.3 ± 0 Ratio
Bilirubin (Total) [2]: 0.9 ± 0 µM
Calcium [2]: 2.50 ± 0 mM
Chloride [2]: 100.4 ± 0 mM
Cholesterol [2]: 1.65 ± 0 mM
Creatinine [2]: 23 ± 0 µM
Globulin [2]: 25.8 ± 0 g/L
Glucose [2]: 7.13 ± 0 mM
HCT [2]: 0.46 ± 0.00 L/L
HGB [2]: 138.0 ± 0.0 g/L
MCH [2]: 18.00 ± 0.00 pg
MCHC [2]: 297.0 ± 0.0 g/L
MCV [2]: 60.40 ± 0.0 fL
PLT [2]: 1075 ± 0.0 10^9/L
PT [2]: 18.4 ± 0.0 s
Phosphate [2]: 2.07 ± 0 mM
Potassium [2]: 4.78 ± 0 mM
Protein (Total) [2]: 58.1 ± 0 g/L
RBC [2]: 7.68 ± 0.00 10^12/L
Retc. [2]: 2.70 ± 0.00%
Sodium [2]: 138 ± 0 mM
Triglycerides [2]: 0.97 ± 0 mM
Urea [2]: 4.02 ± 0 mM
WBC [2]: 10.89 ± 0.00 10^9/L
Body weight loss >10% (termination required) (incidence) [3]: 3/3
Discharge from nose on study day 2 (incidence) [3]: 3/3
Hunched posture with half shut eyes on Study Day 3 (incidence) [3]: 3/3
Labored breathing, severely affected gait and lack of response to stimuli post-dose (termination required) (incidence) [3]: 0/3
Mild impairment of gait and lack of response to stimuli postdose, resolved 2 hours post treatment (incidence) [3]: 3/3
No remarkable observations (incidence) [3]: 0/3
Red stained right eye on study day 2 and 3 (incidence) [3]: 0/3
Multifocal red petechiae on all lung lobes (incidence at necropsy) [3]: 0/0
Smaller right teste (incidence at necropsy) [3]: 0/0
Testes noted to have a soft consistency (incidence at necropsy) [3]: 0/0
White streaks though one or both testes (incidence at necropsy) [3]: 0/0
